Among the test systems are HCC-2998 colon; HOP-62 NSCLC; MALME-3M melanoma; MOLT-4 leukemia; SW-620 colon; UACC-62 melanoma; UO-31 renal; HS 578T breast; NCI/ADR-RES ovarian; SR leukemia.
What all share (assay): NCI tumour cell line growth inhibition, 48 h

Molecules are shown by their SMILES.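 Grown in 96-well plates, cells were treated for 48 hours with each compound at five concentrations. Insufficient inhibition: endpoint recorded as highest concentration tested. At the GI50, growth is halved. TGI denotes the concentration required for complete inhibition of growth.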

As to `Cn1cc(-c2ccc3c4ccccc4n(C)c3c2)c2ccccc21`, the TGI in the assay with HCC-2998 colon, in the assay on HOP-62 NSCLC, with MALME-3M melanoma, in the assay with MOLT-4 leukemia, in the assay on SW-620 colon and in the assay on UACC-62 melanoma was over 100 µM each time. The molecule further came in with a TGI in the assay on UO-31 renal of over 100 µM.
Regarding `O=C1/C(=C/c2ccc(F)cc2)COc2ccc(O)c(O)c21`, the GI50 was 1.8 µM with HCC-2998 colon; 3.43 µM in the assay on HOP-62 NSCLC; 3.5 µM in the assay on HS 578T breast; 1.68 µM in the assay on MALME-3M melanoma; 1.37 µM in the assay with MOLT-4 leukemia; 1.96 µM in the assay on NCI/ADR-RES ovarian. The GI50 is 2.03 µM with SW-620 colon, 2.1 µM in the assay on UACC-62 melanoma and 1.05 µM with UO-31 renal. The TGI in the assay with HCC-2998 colon is 3.57 µM; with HOP-62 NSCLC, 17.8 µM; with HS 578T breast it was over 100 µM; in the assay on MALME-3M melanoma it was 4.34 µM; in the assay on MOLT-4 leukemia it was over 100 µM; in the assay on NCI/ADR-RES ovarian, 7.85 µM. For the same molecule, the figures for the TGI in the assay with SW-620 colon, with UACC-62 melanoma and in the assay on UO-31 renal were 11.3 µM, 6.98 µM and 2.27 µM, respectively.
As for `N.N.N.N.N#N.N#N.[Cl-].[Os+6]`, the GI50 in the assay with HCC-2998 colon, in the assay with MALME-3M melanoma, in the assay with SR leukemia, in the assay on SW-620 colon, with UACC-62 melanoma and in the assay with UO-31 renal was over 100 µM in each case. In addition, the TGI in the assay with HCC-2998 colon, in the assay on MALME-3M melanoma, in the assay with SR leukemia, in the assay on SW-620 colon, with UACC-62 melanoma and in the assay with UO-31 renal was over 100 µM each time.
For `S=C1SCC2CCCN12` (centres undefined), the TGI with HCC-2998 colon, in the assay on HOP-62 NSCLC, in the assay with MALME-3M melanoma, with MOLT-4 leukemia, in the assay on SR leukemia and with SW-620 colon was over 100 µM throughout. In addition, the TGI with UACC-62 melanoma and in the assay with UO-31 renal was over 100 µM throughout.
Consider `Cc1cccc(NC(=O)c2c(N)[n+]([O-])c3ccccc3[n+]2[O-])c1`, for which the TGI in the assay with HOP-62 NSCLC is 31.3 µM; with MALME-3M melanoma, 27.1 µM; with MOLT-4 leukemia it was 81 µM; with SR leukemia it was over 100 µM; in the assay with SW-620 colon, 21.4 µM; in the assay on UO-31 renal, 32.6 µM.
With `Cc1cc(NS(=O)(=O)c2ccc(NC(=O)c3ccc(Cl)c4c(Nc5ccc(S(=O)(=O)Nc6cc(C)on6)cc5)c5ccccc5nc34)cc2)no1`, the TGI in the assay on HOP-62 NSCLC came to 55 µM; in the assay on MALME-3M melanoma, 48.7 µM; with MOLT-4 leukemia, 77.3 µM; in the assay with SW-620 colon, 66.1 µM; in the assay on UACC-62 melanoma, 34.3 µM; in the assay on UO-31 renal, 37.1 µM.
Turning to `O=C(n1c2ccccc2c2n[nH]c(=S)nc21)C(F)(F)F`, the TGI in the assay with HCC-2998 colon, in the assay on HOP-62 NSCLC, in the assay on MALME-3M melanoma, with MOLT-4 leukemia, in the assay with SW-620 colon and in the assay with UACC-62 melanoma was over 100 µM in each case. Moreover, the TGI in the assay with UO-31 renal was over 100 µM.
Regarding `CCN(Cc1ccc(Cl)c(Cl)c1)c1ccc2nc(N)nc(N)c2c1C`, the GI50 was 0.039 µM with HCC-2998 colon; 1.17 µM in the assay on MALME-3M melanoma; 0.0104 µM in the assay with NCI/ADR-RES ovarian; under 0.01 µM in the assay on SW-620 colon; 0.0457 µM in the assay on UO-31 renal. Further, the TGI in the assay on HCC-2998 colon amounted to 1.24 µM; with MALME-3M melanoma, 2.6 µM; with NCI/ADR-RES ovarian it was 1.63 µM; with SW-620 colon, 1.6 µM; in the assay on UO-31 renal, 1.64 µM.
On to `CCCCC[C@@H]1CCCC2NC(CCCCCO[Si](c3ccccc3)(c3ccccc3)C(C)(C)C)CCC21` (some centres undefined), for which the TGI in the assay with HCC-2998 colon was determined as 25.1 µM; in the assay with HOP-62 NSCLC, 36.8 µM; in the assay on MALME-3M melanoma, 36.9 µM; in the assay on MOLT-4 leukemia it was 29.4 µM; in the assay on SW-620 colon, 31.6 µM; with UACC-62 melanoma, 34.9 µM. In the assay with UO-31 renal, this molecule registered a TGI of 26.6 µM.
Take `CNC(=O)[C@H](Cc1c[nH]c2ccccc12)NC(=O)[C@@H](CC(=O)NO)CC(C)C`: the GI50 in the assay with HCC-2998 colon, in the assay on HOP-62 NSCLC, with HS 578T breast, in the assay on MALME-3M melanoma, in the assay on MOLT-4 leukemia and with NCI/ADR-RES ovarian was over 25 µM each time. Besides, the GI50 with SW-620 colon, with UACC-62 melanoma and in the assay on UO-31 renal was over 25 µM in each case. Moreover, the TGI with HCC-2998 colon, with HOP-62 NSCLC, with HS 578T breast, with MALME-3M melanoma, with MOLT-4 leukemia and in the assay with NCI/ADR-RES ovarian was over 25 µM throughout. The TGI in the assay on SW-620 colon, in the assay on UACC-62 melanoma and in the assay with UO-31 renal was over 25 µM throughout.
For the molecule `CC1(Cl)C(=O)NC(=O)N([C@H]2C[C@H](O)[C@@H](CO)O2)C1N=[N+]=[N-]` (some centres undefined), the TGI in the assay with HCC-2998 colon, with HOP-62 NSCLC, with MALME-3M melanoma, in the assay with MOLT-4 leukemia, with SR leukemia and in the assay with SW-620 colon was over 100 µM in each case. Further, the TGI with UACC-62 melanoma and with UO-31 renal was over 100 µM throughout.
Consider `CCOC(=O)c1ccc(N=Cc2ccc(N(CCC#N)S(=O)(=O)c3ccccc3)cc2C)cc1`, for which the TGI with HCC-2998 colon is 58.1 µM; in the assay with HOP-62 NSCLC, over 100 µM; in the assay on MALME-3M melanoma it was over 100 µM; in the assay with MOLT-4 leukemia, over 100 µM; with SW-620 colon, over 100 µM; in the assay on UACC-62 melanoma, over 100 µM. The TGI in the assay with UO-31 renal was over 100 µM.
On to `COc1ccc2c(c1OC)C(=O)C2`, for which the TGI with HOP-62 NSCLC, with MALME-3M melanoma, with MOLT-4 leukemia, in the assay on SR leukemia, in the assay on SW-620 colon and with UACC-62 melanoma was over 100 µM each time. In the assay on UO-31 renal, this molecule gave a TGI of over 100 µM.
For the molecule `CC(=O)/C=C1\CC(=O)N(C)c2ccccc2N1`, the TGI with HCC-2998 colon, with HOP-62 NSCLC, in the assay with MALME-3M melanoma, with MOLT-4 leukemia, in the assay on SR leukemia and in the assay with SW-620 colon was over 100 µM in each case. The TGI with UACC-62 melanoma and in the assay on UO-31 renal was over 100 µM in each case.

Values taken from PubChem BioAssay (NCI).
